Columns and labels:
[1] = system: EpiDerm™ 201 synthetic skin (keratinocytes), interleukin-1 alpha release
Text: The synthetic skin, EpiDerm™ 201 (MatTek Corporation, Ashland, Mass.) contains keratinocytes that release interleukin-1 alpha (IL-1 alpha) when subjected to proteases in the fecal extract. When the IL-1 alpha was released, it diffused from the skin into the fluid below the EpiDerm™. Samples of this fluid were taken and analyzed for the presence of the IL-1 alpha. Higher levels of IL-1 alpha was indicative of greater skin irritation.
Prior to application onto the EpiDerm™, the fecal extract (10.4 μL) was pre-incubated for 30 minutes at room temperature with 250 mM zinc sulfate heptahydrate in water (2.6 μL). Water only and fecal extract only samples served as controls. After application of the samples to the EpiDerm™, 25 μL aliquots were removed from the underlying media at 8, 12, and 24 hours to test for the presence of the IL-1 alpha. The aliquots were directly added to a 1.5 mL micro-centrifuge tube containing 225 μL of filtered-sterilized 20 mM Tris-HCl, pH 8.0, 1% BSA buffer and stored at −80° C. After all samples were collected, IL-1 alpha levels were quantified using the R&D Systems Interleukin-1 alpha Quantikine Kit (R&D Systems, Minneapolis, Minn.).

[2] = system: proteolytic activity of infant urine; conditions: 0-50 mM, pH 8.0, 37° C.
Protocol: The proteolytic activity of infant urine was measured using fluorescently-labeled casein.
Two (2) infant urine (100 μL) samples were added to wells of a 96 white plate (Dynex) containing 80 μL of 12.5 μg/ml solution of a fluorescent dye-labeled casein substrate (EnzChek Protease Assay Kit (E-6639)) in 100 mM Tris-HCl, pH 8.0, and allowed to incubate for 60 minutes at 37° C. […] Reaction of the infant urine with the casein substrate cleaves the fluorescent dye from the substrate. RFUs were collected using the Fluoroskan Ascent System with excitation and emission filters of 485 and 538 nm, respectively. Data were collected each minute for 60 minutes at 37° C. and rates (RFU/min) from 30-50 minutes were calculated for each zinc concentration. Using the uninhibited wells as 100% protease activity, percent of urine proteolytic activity remaining was determined for each concentration of zinc inhibitor (Inhibited Rate/Uninhibited rate* 100).

[3] = system: proteolytic activity of fecal extract; conditions: 0-1 mM emulsions, pH 8.0, room temperature
Protocol: The supernatant was filtered through 0.22 micron cellulose acetate filters and stored at −80° C. until use.

[4] = system: proteolytic activity in the fecal extract; assay: Fecal extract protease assay with labeled casein (silk proteins); format: biochemical, infant; conditions: serial dilutions in 100 mM Tris-HCl pH 8.0, room temperature
Protocol: Water soluble silk protein (SERICIN, Pentapharm AG, Basel, Switzerland) and hydrolyzed silk (CROSILK 10,000, Croda, Incorporated, Parsippany, N.J.) were individually shown to inhibit proteolytic activity in the fecal extract that has been implicated to contribute to diaper rash. Serial dilutions of the neat protein and hydrolysate were performed with 100 mM Tris-HCl pH 8.0 as the diluent. The silk protein concentrations were determined using a Macro BCA Protein Assay Reagent Kit (Pierce, Rockford, Ill.).
Fecal extract was prepared as described above for the examples of silk protein and zinc compositions. […] The reaction was initiated with the addition of 100 μL of the 2 μg/ml fecal extract. […] The reaction was run for 30 min. at room temperature and rates (RFU/min) from 10-20 minutes were calculated.

O.O.O.O.O.O.O.O=S(=O)([O-])[O-].[Zn+2] [zinc sulfate heptahydrate]
inhibition of fecal extract activity on EpiDerm, concentration series (FIG. 12) ([1]; 0, 25, 50, 125 and 250 mM in 2.6 μL aliquot added to 10.4 μL fecal extract): effectively inhibits the proteolytic activity of fecal extract in a dose-dependent manner
interleukin-1 alpha released into underlying media (FIG. 11) ([1]; 250 mM pre-incubated 30 min with fecal extract, relative to FE+water, 8, 12 and 24 hours): reduced the amount of interleukin-1 alpha released into the underlying media
inhibition of casein hydrolysis by infant urine (FIG. 10) [2]: effectively inhibited the hydrolysis of casein by infant urine in a dose-dependent manner
inhibition of casein hydrolysis by fecal extract (FIG. 9) [3]: effectively inhibited the hydrolysis of casein by the fecal extract in a dose-dependent manner

SERICIN
fecal proteolytic activity (FIG. 13) [4]: reduction of proteolytic activity with increasing concentrations
